Reference: paper PMC2195584 (The Journal of Experimental Medicine, 1999)

Key:
[1] = system: Lymph node T cells from CD28-deficient mice; assay: Proliferation of retrovirally reconstituted T cells from CD28-deficient mice; assay type: cell-based, mouse; settings: single stimulus, anti-CD3 or PMA alone; 36-h culture; quadruplicate
[2] = system: c-fos promoter in Jurkat cells; assay: c-fos luciferase reporter, Jurkat cells; assay type: cell-based; settings: presence and absence of CD28 antibodies, vs wild-type mCD28
c-Src = settings: coexpression in 293 cells; cited from earlier work

With CCCCCCCCCCCCCC(=O)O[C@@H]1[C@@H](C)[C@@]2(O)[C@@H](C=C(CO)C[C@]3(O)C(=O)C(C)=C[C@@H]23)[C@@H]2C(C)(C)[C@]12OC(C)=O [PMA] the “proliferation ([3H]thymidine), control retrovirus” value [1] was “proliferated weakly”.

For “mutated form of mCD28: CD28 with alanines substituted for prolines 187 and 190”, the “induction of c-fos promoter (in words)” value [2] was “significantly impaired in its ability to induce the c-fos promoter”.

B1: SIN: SH3 binding protein, SIN (protein, UniProt Q64355 1-560, looked up)
Embryonal Fyn-associated …: MAIATSAQLARALYDNTAESPQELSFRRGDVLRVLQREGAGGLDGWCLCSLHGQQGIVPANRVKLLPAGPAPKPSLCPASPTQPGSSCPTPERGCEEQEVYVIPPPARPCSASGLPARSCSPSSDSIYKVPRGNGMQLTASRDVAEVYDVPPNILRAPSSCPYDSPASFSCPVAPVVPQPPREDEAPYDVPLALKPPAELERDPEWEGGREPGPPLYAAPSNLKRASALLNLYEAPEELLANGESRDADEGIYDVPLLGPEPPSPEPPVASSSTDLDTVAQLPTRSSPPQHRPRLPSTESLSRRPLPALPVSEAPAPSPAPSPAPGRKGSIQDRPLPPPPPCLPGYGGLKPEGDPECREVANDPAGPHNEYEGIPMAEEYDYVHLKGVDTAQGSRPLDKAFPVDPELLERGLAERKEALSPEEPLVLSTGDLQLLHFYAGQCQSHYSALQAAVAALVASTQANQPPCLFVPHGKRVVVAAHRLVFVGDTLGRLAASAALRAQVGAAGTMLAQTLRATVLAVKGAALGYPSDTAVQEMARCVAELAGQALRFTTLLDGLLP
For B1, the “c-Src kinase activity induction” value (c-Src) is given as “can be induced”.
